Molecular target: T1, recombinant human monoacylglyceride lipase (rhMAGL) (Homo sapiens, UniProt Q99685)
T1 sequence (Q99685 1-303): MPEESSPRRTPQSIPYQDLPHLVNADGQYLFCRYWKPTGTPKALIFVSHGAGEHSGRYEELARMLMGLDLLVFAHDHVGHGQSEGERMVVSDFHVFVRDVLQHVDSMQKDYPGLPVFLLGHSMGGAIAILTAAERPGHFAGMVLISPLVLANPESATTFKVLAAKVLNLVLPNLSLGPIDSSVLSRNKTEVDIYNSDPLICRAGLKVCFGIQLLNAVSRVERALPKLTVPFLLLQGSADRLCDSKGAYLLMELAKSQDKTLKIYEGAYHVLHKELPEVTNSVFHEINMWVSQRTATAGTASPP
Assay: In vitro monoglyceride stability of lipid prodrugs with lipoprotein lipase and rhMAGL
Type: in vitro ADME
Settings: 50 μM prodrug, 10 mg/mL BSA, LPL 300 units/mL, 180 vs 30 minutes, 37° C., scale −10 to 10
Experimental: The stability of lipid prodrugs of 2-bromo-LSD was evaluated in the presence or absence of recombinant human monoacylglyceride lipase (rhMAGL). 50 µM of prodrug was incubated in 10 mg/mL BSA supplemented with lipoprotein lipase (300 units/mL) and rhMAGL (0-0.5 μg/mL). The concentration of MAGL may be adjusted based on observed activity. Reactions were initiated via the addition of prodrug and incubated at 37° C. for 180 minutes. Aliquots were removed at 30, 60, 120, and 180 minutes and the reaction quenched with the addition of cold acetonitrile spiked with internal standard(s) (1:3 sample to acetonitrile). Samples were vortexed and centrifuged and the supernatant transferred and diluted in 0.1% formic acid water (1:3 supernatant to 0.1% formic acid water). Samples were analyzed via LC-MS. Monoglyceride stability was calculated using the following equations:
LPL MG Ratio=MG Peak Area at 180 minutes for LPL only/MG Peak area at 30 minutes for LPL only
rhMAGLMG Ratio=MG Peak Area at 180 minutes for LPLand rhMAGL/MG Peak Area at 30 minutes for LPLand rhMAGL
MG Stability=((rhMAGLMG Ratio−(1−LPL MG Ratio))*10
Stability is calculated on a scale of −10 to 10, with 10 representing 100% monoglyceride remaining (i.e., highest stability) and −10 representing 100% monoglyceride loss (i.e., lowest stability). Monoglyceride stability is represented by the following categories, wherein A is a stability score of 5 to 10, B is a stability score of 0 to 5, C is a stability score of −5 to 0, and D is a stability score of −5 to −10.

SMILES | Monoacylglyceride Stability
CCCCCCCC(=O)OCC(COC(=O)CCCCCCC)OC(=O)CC(C)(C)CC(=O)OCCCCC(=O)n1c(Br)c2c3c(cccc31)C1=C[C@@H](C(=O)N(CC)CC)CN(C)[C@@H]1C2 [Compound I-16, 2BL-FSI5-C5bbGMe-2-TG-octanoate] | A (A is a stability score of 5 to 10)
CCCCCCCC(=O)OCC(COC(=O)CCCCCCC)OC(=O)CC(C)(C)CC(=O)OCCCC(=O)n1c(Br)c2c3c(cccc31)C1=C[C@@H](C(=O)N(CC)CC)CN(C)[C@@H]1C2 [Compound I-15, 2BL-FSI4-C5bbGMe-2-TG-octanoate] | B (B is a stability score of 0 to 5)
CCCCCCCC(=O)OCC(COC(=O)CCCCCCC)OC(=O)CC(C)(C)CCC(=O)OCOC(=O)n1c(Br)c2c3c(cccc31)C1=C[C@@H](C(=O)N(CC)CC)CN(C)[C@@H]1C2 [Compound I-23, 2BL-CASI-C6bbGMe-2-TG-octanoate] | A (A is a stability score of 5 to 10)
CCCCCCCC/C=C\CCCCCCCC(=O)OCC(COC(=O)CCCCCCC/C=C\CCCCCCCC)OC(=O)CC(C)CCCCC(=O)n1c(Br)c2c3c(cccc31)C1=C[C@@H](C(=O)N(CC)CC)CN(C)[C@@H]1C2 (stereo partly shown) [Compound I-2, 2BL-C8bMe-2-TG-oleate] | A (A is a stability score of 5 to 10)
CCCCCCCC/C=C\CCCCCCCC(=O)OCC(COC(=O)CCCCCCC/C=C\CCCCCCCC)OC(=O)CC(C)CC(=O)n1c(Br)c2c3c(cccc31)C1=C[C@@H](C(=O)N(CC)CC)CN(C)[C@@H]1C2 (stereo partly shown) [Compound I-1, 2BL-C5bMe-2-TG-oleate] | A (A is a stability score of 5 to 10)
CCCCCCCC(=O)OCC(COC(=O)CCCCCCC)OC(=O)CC1(CC(=O)OCCCC(=O)n2c(Br)c3c4c(cccc42)C2=C[C@@H](C(=O)N(CC)CC)CN(C)[C@@H]2C3)CC1 [I-15′, 2BL-FSI4-C5bcPr-2-TG-octanoate] | A (A is a stability score of 5 to 10)
CCCCCCCC(=O)OCC(COC(=O)CCCCCCC)OC(=O)CC(C)(C)CCC(=O)OCn1c(Br)c2c3c(cccc31)C1=C[C@@H](C(=O)N(CC)CC)CN(C)[C@@H]1C2 [Compound I-27, 2BL-ASI-C6bbGMe-2-TG-octanoate] | D (D is a stability score of −5 to −10)
CCCCCCCC(=O)OCC(COC(=O)CCCCCCC)OC(=O)CC1(CC(=O)n2c(Br)c3c4c(cccc42)C2=C[C@@H](C(=O)N(CC)CC)CN(C)[C@@H]2C3)CC1 [Compound I-26, 2BL-C5bcPr-2-TG-octanoate] | A (A is a stability score of 5 to 10)
CCCCCCCC(=O)OCC(COC(=O)CCCCCCC)OC(=O)CC1(CC(=O)OCCCCC(=O)n2c(Br)c3c4c(cccc42)C2=C[C@@H](C(=O)N(CC)CC)CN(C)[C@@H]2C3)CC1 [Compound I-18, 2BL-FSI5-C5bcPr-2-TG-octanoate] | A (A is a stability score of 5 to 10)
CCCCCCCC(=O)OCC(COC(=O)CCCCCCC)OC(=O)CC(C)(C)CC(=O)OCOC(=O)n1c(Br)c2c3c(cccc31)C1=C[C@@H](C(=O)N(CC)CC)CN(C)[C@@H]1C2 [Compound I-9, 2BL-CASI-C5bbGMe-2-TG-octanoate] | A (A is a stability score of 5 to 10)
CCCCCCCC/C=C\CCCCCCCC(=O)OCC(COC(=O)CCCCCCC/C=C\CCCCCCCC)OC(=O)CC(C)CC(=O)OCCCC(=O)n1c(Br)c2c3c(cccc31)C1=C[C@@H](C(=O)N(CC)CC)CN(C)[C@@H]1C2 (stereo partly shown) [Compound I-14, 2BL-FSI4-C5bMe-2-TG-oleate] | A (A is a stability score of 5 to 10)
CCCCCCCC(=O)OCC(COC(=O)CCCCCCC)OC(=O)CC1(CC(=O)OCn2c(Br)c3c4c(cccc42)C2=C[C@@H](C(=O)N(CC)CC)CN(C)[C@@H]2C3)CC1 [Compound I-25, 2BL-ASI-C5bcPr-2-TG-octanoate] | D (D is a stability score of −5 to −10)
CCCCCCCC(=O)OCC(COC(=O)CCCCCCC)OC(=O)CC1(CC(=O)OCOC(=O)n2c(Br)c3c4c(cccc42)C2=C[C@@H](C(=O)N(CC)CC)CN(C)[C@@H]2C3)CC1 [I-9′, 2BL-CASI-C5bcPr-2-TG-octanoate] | A (A is a stability score of 5 to 10)

Source: patent US20260242371A1, “LIPID PRODRUGS OF BROM[…] USES THEREOF” (priority 2023, published 2026)
